Source: ChEMBL document CHEMBL1201862, “PubChem BioAssay data set” (2004)
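Cells were grown in 96-well plates and exposed to each compound for 48 hours at five concentrations; endpoints were interpolated linearly between bracketing concentrations, or set to the highest concentration if not reached. At the GI50, growth is halved.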 Calls of active or inactive are those of the source. Cut-off read from the data, not from the text of the source: active = GI50 up to about 1.1 µM and inactive = higher.

Tests used:
Assay in all cases: growth of human tumour cells (NCI), 48 h
786-0 = test system: 786-0
A498 = test system: A498
A549 = test system: A549
ACHN = test system: ACHN
BT-549 = test system: BT-549
CAKI-1 = test system: CAKI-1
CCRF-CEM = test system: CCRF-CEM
COLO 205 = test system: COLO 205
DU-145 = test system: DU-145
EKVX = test system: EKVX
HCC 2998 = test system: HCC 2998
HCT-116 = test system: HCT-116
HCT-15 = test system: HCT-15
HL-60 = test system: HL-60
HOP-62 = test system: HOP-62
HOP-92 = test system: HOP-92
HT-29 = test system: HT-29
Hs-578T = test system: Hs-578T
IGROV-1 = test system: IGROV-1
K562 = test system: K562
KM12 = test system: KM12
LOX IMVI = test system: LOX IMVI
M14 = test system: M14
MCF7 = test system: MCF7
MDA-MB-231 = test system: MDA-MB-231
MDA-MB-435 = test system: MDA-MB-435
MOLT-4 = test system: MOLT-4
NCI-H226 = test system: NCI-H226
NCI-H23 = test system: NCI-H23
NCI-H460 = test system: NCI-H460
NCI-H522 = test system: NCI-H522
NCI/ADR-RES = test system: NCI/ADR-RES
OVCAR-3 = test system: OVCAR-3
OVCAR-4 = test system: OVCAR-4
OVCAR-5 = test system: OVCAR-5
OVCAR-8 = test system: OVCAR-8
PC-3 = test system: PC-3
RPMI-8226 = test system: RPMI-8226
RXF 393 = test system: RXF 393
SF-268 = test system: SF-268
SF-295 = test system: SF-295
SK-MEL-28 = test system: SK-MEL-28
SK-MEL-2 = test system: SK-MEL-2
SK-MEL-5 = test system: SK-MEL-5
SK-OV-3 = test system: SK-OV-3
SN12C = test system: SN12C
SNB-19 = test system: SNB-19
SNB-75 = test system: SNB-75
SR = test system: SR
SW-620 = test system: SW-620
T47D = test system: T47D
TK-10 = test system: TK-10
U-251 = test system: U-251
UACC-257 = test system: UACC-257
UACC-62 = test system: UACC-62
UO-31 = test system: UO-31
Malme-3M = test system: Malme-3M
SF-539 = test system: SF-539
MDA-N = test system: MDA-N

Cn1c(=O)c2c(nc3n(Cc4ccccc4)c(=O)c(NCCCBr)cn23)n(C)c1=O
GI50 (786-0): 23.9 µM (inactive) | GI50 (A498): > 100 µM (inactive) | GI50 (A549): > 100 µM (inactive) | GI50 (ACHN): 32.6 µM (inactive) | GI50 (BT-549): > 100 µM (inactive) | GI50 (CAKI-1): > 100 µM (inactive) | GI50 (CCRF-CEM): > 100 µM (inactive) | GI50 (COLO 205): > 100 µM (inactive) | GI50 (DU-145): > 100 µM (inactive) | GI50 (EKVX): 43.6 µM (inactive) | GI50 (HCC 2998): > 100 µM (inactive) | GI50 (HCT-116): 54 µM (inactive) | GI50 (HCT-15): > 100 µM | GI50 (HL-60): > 100 µM (inactive) | GI50 (HOP-62): 26.5 µM (inactive) | GI50 (HOP-92): 18.1 µM (inactive) | GI50 (HT-29): > 100 µM (inactive) | GI50 (Hs-578T): 27.3 µM (inactive) | GI50 (IGROV-1): 46.7 µM (inactive) | GI50 (K562): > 100 µM (inactive) | GI50 (KM12): > 100 µM (inactive) | GI50 (LOX IMVI): 99.1 µM (inactive) | GI50 (M14): > 100 µM (inactive) | GI50 (MCF7): > 100 µM (inactive) | GI50 (MDA-MB-231): 64.9 µM (inactive) | GI50 (MDA-MB-435): > 100 µM (inactive) | GI50 (MOLT-4): 19.2 µM (inactive) | GI50 (NCI-H226): 31.5 µM (inactive) | GI50 (NCI-H23): > 100 µM (inactive) | GI50 (NCI-H460): > 100 µM (inactive) | GI50 (NCI-H522): 54.3 µM (inactive) | GI50 (NCI/ADR-RES): > 100 µM (inactive) | GI50 (OVCAR-3): > 100 µM (inactive) | GI50 (OVCAR-4): > 100 µM (inactive) | GI50 (OVCAR-5): > 100 µM (inactive) | GI50 (OVCAR-8): 84.9 µM (inactive) | GI50 (PC-3): > 100 µM (inactive) | GI50 (RPMI-8226): > 100 µM (inactive) | GI50 (RXF 393): 71 µM (inactive) | GI50 (SF-268): 41.2 µM (inactive) | GI50 (SF-295): 31.8 µM (inactive) | GI50 (SK-MEL-28): > 100 µM (inactive) | GI50 (SK-MEL-2): > 100 µM (inactive) | GI50 (SK-MEL-5): > 100 µM (inactive) | GI50 (SK-OV-3): 36.6 µM (inactive) | GI50 (SN12C): > 100 µM (inactive) | GI50 (SNB-19): 64.4 µM (inactive) | GI50 (SNB-75): 24.8 µM (inactive) | GI50 (SR): 23 µM (inactive) | GI50 (SW-620): > 100 µM (inactive) | GI50 (T47D): > 100 µM (inactive) | GI50 (TK-10): 38.5 µM (inactive) | GI50 (U-251): 34.1 µM (inactive) | GI50 (UACC-257): > 100 µM (inactive) | GI50 (UACC-62): > 100 µM (inactive) | GI50 (UO-31): > 100 µM (inactive)

C=C(c1ccc2[nH]c(NC(=O)OC)nc2c1)c1cccs1
GI50 (786-0): 0.155 µM (active) | GI50 (A498): 0.425 µM (active) | GI50 (A549): 0.16 µM (active) | GI50 (ACHN): 0.06 µM (active) | GI50 (BT-549): 0.679 µM (active) | GI50 (CAKI-1): < 0.046 µM (active) | GI50 (COLO 205): 0.129 µM (active) | GI50 (DU-145): 0.309 µM (active) | GI50 (EKVX): 9.46 µM (inactive) | GI50 (HCC 2998): 0.217 µM (active) | GI50 (HCT-116): 0.0675 µM (active) | GI50 (HCT-15): < 0.0349 µM | GI50 (HOP-62): 0.206 µM (active) | GI50 (HOP-92): 0.975 µM (active) | GI50 (HT-29): 0.0568 µM (active) | GI50 (Hs-578T): 0.417 µM (active) | GI50 (IGROV-1): 0.371 µM (active) | GI50 (K562): < 0.0456 µM (active) | GI50 (LOX IMVI): 0.0986 µM (active) | GI50 (M14): 0.247 µM (active) | GI50 (MCF7): 0.0925 µM (active) | GI50 (MDA-MB-231): 0.365 µM (active) | GI50 (MDA-MB-435): 0.0259 µM (active) | GI50 (Malme-3M): 0.0855 µM (active) | GI50 (NCI-H226): 0.22 µM (active) | GI50 (NCI-H23): 0.129 µM (active) | GI50 (NCI-H460): 0.118 µM (active) | GI50 (NCI-H522): 0.0813 µM (active) | GI50 (NCI/ADR-RES): 0.0488 µM (active) | GI50 (OVCAR-3): 0.0379 µM (active) | GI50 (OVCAR-5): 2.1 µM (inactive) | GI50 (OVCAR-8): 0.299 µM (active) | GI50 (PC-3): 0.0914 µM (active) | GI50 (RPMI-8226): 0.316 µM (active) | GI50 (RXF 393): > 100 µM (inactive) | GI50 (SF-268): 2.02 µM (inactive) | GI50 (SF-295): 0.051 µM (active) | GI50 (SF-539): 0.0693 µM (active) | GI50 (SK-MEL-28): 3.47 µM (inactive) | GI50 (SK-MEL-2): 2.26 µM (inactive) | GI50 (SK-MEL-5): 0.0703 µM (active) | GI50 (SK-OV-3): 0.135 µM (active) | GI50 (SN12C): 0.839 µM (active) | GI50 (SNB-19): 0.198 µM (active) | GI50 (SR): < 0.01 µM (active) | GI50 (T47D): 0.354 µM (active) | GI50 (TK-10): 0.22 µM (active) | GI50 (U-251): 0.0791 µM (active) | GI50 (UACC-257): 0.556 µM (active) | GI50 (UACC-62): 0.121 µM (active) | GI50 (UO-31): 0.916 µM (active)

CCCCNC(=S)Nc1nc(C(=O)NNC(=S)Nc2ccccc2)cs1
GI50 (786-0): 40.1 µM (inactive) | GI50 (A498): 33.1 µM (inactive) | GI50 (A549): > 100 µM (inactive) | GI50 (ACHN): > 100 µM (inactive) | GI50 (BT-549): > 100 µM (inactive) | GI50 (CAKI-1): > 100 µM (inactive) | GI50 (CCRF-CEM): > 100 µM (inactive) | GI50 (COLO 205): 32.7 µM (inactive) | GI50 (DU-145): > 100 µM (inactive) | GI50 (EKVX): > 100 µM (inactive) | GI50 (HCC 2998): > 100 µM (inactive) | GI50 (HCT-116): > 100 µM (inactive) | GI50 (HCT-15): > 100 µM | GI50 (HOP-62): > 100 µM (inactive) | GI50 (HOP-92): 21.4 µM (inactive) | GI50 (HT-29): > 100 µM (inactive) | GI50 (KM12): > 100 µM (inactive) | GI50 (M14): 82.8 µM (inactive) | GI50 (MCF7): > 100 µM (inactive) | GI50 (MDA-MB-231): 30.3 µM (inactive) | GI50 (MDA-MB-435): 61 µM (inactive) | GI50 (MDA-N): > 100 µM (inactive) | GI50 (MOLT-4): > 100 µM (inactive) | GI50 (NCI-H226): > 100 µM (inactive) | GI50 (NCI-H23): > 100 µM (inactive) | GI50 (NCI-H460): > 100 µM (inactive) | GI50 (NCI/ADR-RES): > 100 µM (inactive) | GI50 (OVCAR-3): > 100 µM (inactive) | GI50 (OVCAR-4): > 100 µM (inactive) | GI50 (OVCAR-5): > 100 µM (inactive) | GI50 (OVCAR-8): > 100 µM (inactive) | GI50 (PC-3): > 100 µM (inactive) | GI50 (RPMI-8226): > 100 µM (inactive) | GI50 (SF-268): > 100 µM (inactive) | GI50 (SF-295): > 100 µM (inactive) | GI50 (SF-539): > 100 µM (inactive) | GI50 (SK-MEL-2): 44.9 µM (inactive) | GI50 (SK-MEL-5): 40.4 µM (inactive) | GI50 (SK-OV-3): > 100 µM (inactive) | GI50 (SN12C): > 100 µM (inactive) | GI50 (SNB-19): > 100 µM (inactive) | GI50 (SNB-75): 38.3 µM (inactive) | GI50 (SW-620): > 100 µM (inactive) | GI50 (T47D): > 100 µM (inactive) | GI50 (TK-10): > 100 µM (inactive) | GI50 (U-251): 21.1 µM (inactive) | GI50 (UACC-257): > 100 µM (inactive) | GI50 (UACC-62): > 100 µM (inactive) | GI50 (UO-31): > 100 µM (inactive)
